Experimental data: patent US20100029542A1, “PROTEIN STERILISATION BY RADIATION AND ADDITION OF A STABILISING COMPOSITION” (priority 2006, published 2010)

Biological target: T1, glucose oxidase (Aspergillus niger, UniProt P13006)
T1 construct: purchased Biocatalysts G575P
Test: Activity recovery of glucose oxidase in dry formulations following gamma irradiation
Assay type: physicochemical
Conditions: glucose oxidase 350 μg mL^−1 prior to drying, dry, 25-40 kGy
Experimental: In each example, an aqueous solution of a protein was prepared with selected additives in an Eppendorf tube or in a glass vial. Water was removed from the formulation by drying under a stream of nitrogen at 30° C. and subsequent incubation at atmospheric pressure in the presence of a dessicant. The Eppendorf tubes or the glass vials were sealed and delivered to an industrial sterilisation service for gamma irradiation, with a dose range typical for sterile medical products. The gamma-irradiated samples were reconstituted on their return and analysed for protein activity or structural integrity. The results were compared with those achieved using control (i.e. non-irradiated) samples.
The dry samples (approx. 20 μg in an Eppendorf tube) were gamma-irradiated by an industry-standard commercial sterilising service provided by Isotron PLC (Swindon, Wilts, UK), using a Cobalt 60 gamma source at ambient temperature. The radiation dose was in the range of 25-40 kGy.
The original solutions (i.e. solutions prior to drying) contained 350 μg mL^−1 of glucose oxidase and typically the total of 100 mM of protective compounds (i.e. 100 mM in case of a single compound, 50 mM+50 mM in case of two compounds, 33.3 mM+33.3 mM+33.3 mM in the case of three compounds etc.). The solutions were dried and gamma irradiated. Following the gamma irradiation, the samples, both pre- and post-gamma irradiated, were assayed for glucose oxidase activity. This was performed according to the following procedure:
Water was added to the sample to achieve 350 μg mL^−1 of glucose oxidase. 50 μL of the solution was added to 50 mL of deionised water. The following solutions were then added: • 10 mL of reagent mix (5 parts of 0.1 M sodium phosphate, pH 6+4 parts 2% w/w starch+1 part of 1 mg/mL lactoperoxidase enzyme); • 5 mL of 100 mM potassium iodide; and • 5 mL of 20% w/w glucose solution.
These were mixed together quickly. Time=0 was counted from the addition of the glucose. After 5 min, 1 ml of 5 M aq. hydrochloric acid was added to stop the reaction. The absorbance was then read at 630 nm using a Unicam UV-visible spectrophotometer (Type: Helios gamma). If the colour intensity was too great to allow an accurate reading, the sample was diluted with a defined volume of deionised water to bring the colour back on scale. The results were expressed as percentage recovery, by reference to the absorbance measured in the pre-gamma irradiation samples.

Measured: Enzyme activity remaining after gamma-irradiation

T1 sequence (P13006 17-605): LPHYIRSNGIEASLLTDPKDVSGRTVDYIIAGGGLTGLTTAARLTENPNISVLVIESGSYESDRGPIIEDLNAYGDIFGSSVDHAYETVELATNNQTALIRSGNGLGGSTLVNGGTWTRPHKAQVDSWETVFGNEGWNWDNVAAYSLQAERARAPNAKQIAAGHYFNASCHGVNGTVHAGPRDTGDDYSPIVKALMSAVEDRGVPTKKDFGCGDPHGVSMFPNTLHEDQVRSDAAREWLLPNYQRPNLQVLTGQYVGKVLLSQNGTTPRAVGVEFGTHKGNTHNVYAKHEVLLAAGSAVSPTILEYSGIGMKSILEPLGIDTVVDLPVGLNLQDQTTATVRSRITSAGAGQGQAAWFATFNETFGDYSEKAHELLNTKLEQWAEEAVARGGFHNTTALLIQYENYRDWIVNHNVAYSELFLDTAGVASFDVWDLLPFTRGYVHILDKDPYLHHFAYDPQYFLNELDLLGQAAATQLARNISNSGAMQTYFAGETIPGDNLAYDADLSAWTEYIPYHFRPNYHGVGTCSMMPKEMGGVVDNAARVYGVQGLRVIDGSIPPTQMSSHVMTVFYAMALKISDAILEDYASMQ

CSCC[C@H](N)C(=O)O [Methionine]
61.3%: Table 3, prior-art antioxidants, ambient temperature, vs non-irradiated | Table 5, singlet oxygen scavengers, ambient temperature | Table 9, superoxide scavengers
